Several values for one entry are separate records, joined by “and”; a condition that tells them apart may be missing. Identical values can stand only once.
molecular target: T1, hURAT1 (Homo sapiens, UniProt Q96S37); assay: Inhibitory activity against URAT1: 14C-labelled uric acid uptake in HEK-293t cells stably expressing hURAT1; format: cell-based; conditions: HEK-293t/hURAT1 cells, 14C uric acid uptake, 5 minutes at room temperature; Ref Cpd 2, 83, Ref Cpd 3 and 129 are averages of head-to-head tests; read-out: IC50 (nM) of hURAT1 inhibitory activity
T1 sequence (Q96S37 1-553): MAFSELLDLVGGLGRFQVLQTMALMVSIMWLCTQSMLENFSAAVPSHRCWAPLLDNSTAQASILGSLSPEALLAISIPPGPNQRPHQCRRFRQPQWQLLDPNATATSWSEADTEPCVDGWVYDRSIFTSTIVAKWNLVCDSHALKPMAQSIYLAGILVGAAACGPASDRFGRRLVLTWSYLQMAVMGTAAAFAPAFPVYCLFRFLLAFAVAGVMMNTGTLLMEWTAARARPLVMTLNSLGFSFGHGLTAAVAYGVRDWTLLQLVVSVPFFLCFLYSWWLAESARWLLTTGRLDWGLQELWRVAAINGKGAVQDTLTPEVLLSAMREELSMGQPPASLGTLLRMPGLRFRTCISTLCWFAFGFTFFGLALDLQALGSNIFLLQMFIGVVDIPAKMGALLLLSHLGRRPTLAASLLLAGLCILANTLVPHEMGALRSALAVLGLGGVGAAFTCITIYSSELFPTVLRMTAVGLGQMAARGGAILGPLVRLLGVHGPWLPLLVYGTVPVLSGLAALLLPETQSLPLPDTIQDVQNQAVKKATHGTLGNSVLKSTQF
Excerpt: • Test example: Determination of the inhibitory activity of compounds according to the present invention against URAT1 Experimental Materials • FBS (Invitrogen, Cat. No. 10099141) • Trypsin (Invitrogen, Cat. No. 25200056) • DPBS (Invitrogen, Cat. No. 14190250) • DMEM (Invitrogen, Cat. No. 10564) • Penicillin-Streptomycin (Invitrogen, Cat. No. 15070-063) • TransIT-293 Transfection Reagent (MIRUS BIO, Cat. No. MIR2706) • Opti-MEM® I Reduced Serum Medium (Invitrogen, Cat. No. 31985-070) • URAT1 plasmid (Genecopoeia, Cat. No. EX-T4563-M03) • Uric acid [8-14C] (ARC, Cat. No. ARC0513-250UCI) • Ultima Gold™ XR (PerkinElmer, Cat. No. 6013111) • Benzbromarone (J&K Scientific, Cat. No. 3562-84-3) • D-Gluconic acid sodium salt (Aladdin, Cat. No. 527-07-1) • Potassium D-gluconate (Aladdin, Cat. No. 299-27-4) • Calcium gluconate (Aladdin, Cat. No. 299-28-5) • DMSO (Sigma, Cat. No. D2650) • Tube, 15 ml (Greiner, Cat. No. 07030115) • Tube, 50 ml (BD Falcon, Cat. No. 352098) • Poly-D-lysine 96-well microplates (BD, Cat. No. 356461) • Isoplate-96 Microplate (PERKIN ELMER, Cat. No. 6005040) Experimental Method:
Cell Culture: • 1. The HEK-293t cells that expressed the stable expression of hURAT1 were cultured in DMEM medium containing 10% FBS and 1% P/S, and incubated overnight in the incubator at 37° C. under 5% carbon dioxide. • 2. the culture medium was removed, and the cells were washed with PBS, and then the pancreatin was added to digest for 2 minutes. After the cell is separated from the dish, 10 ml of medium was added to terminate digestion. • 3. The cells were placed into a centrifugal apparatus and centrifugated for 2 minutes at the speed of 1000 rpm, followed by the addition of fresh 10 mL medium to resuspend the cells, and calculate the number of cells. The number of cells was adjusted to 4×10^5 cells/mL. • 4. the above counted cells were inoculated into the 96-well plate at 100 μL/well. • 5. The 96-well plate with inoculated cells was placed in a 37° C. cell incubator and cultivated overnight.
The uric acid absorption experiment labeled with isotope C14: • 1. 5 mL of Cl-free HBSS buffer was added to a 15 mL centrifuge tube, followed by the addition of the uric acid labeled with C14, and the concentration of uric acid was 2 uCi/ml. • 2. The medium in the 96-well plate that was previously cultivated overnight was removed, and the plate was washed three times with […] preheated Cl-free HBSS buffer. • 3. The buffer in the well-washed 96-well plate was removed. • 4. […] Cl-free HBSS buffer containing C-14 labeled uric acid was added into each well in the cleaned 96-well plate, and then DMSO solution of the compound that needs to be tested was added. • 5. After the 96-well plate stood for 5 minutes at room temperature, all the liquid in it was removed. • 6. […] precooled Cl-free HBSS buffer was added to wash the plate three times. • 7. After the remained liquid in the plates was completely removed, 50 μL cell lysis was added to each well, and the plate was agitated on the mixer at a speed of 600 revolutions/min for 10 minutes. • 8. After 50 μL Ultima Gold™ XR scitillation cocktail fluid was added, the plate was continued to agitate for 10 minutes. The well-agitated plate was sealed, and the data was read on MicroBeta Trilux. • 9. The test compound was dissolved in DMSO, and DMSO at the same concentration was added to the HEK293/hURAT1 cell well without test compounds. […] The radiation value obtained from the well containing DMSO is considered to be 100% of the cell uptake. The IC50 values of compounds can be calculated by the inhibition rate at different concentrations.
Among them, reference compound 1 was synthesized according to the method described in patent WO 2011/159839 A2. Reference compound 2 and reference compound 3 were synthesized according to the method described in patent WO 2014/183555 A1, and they were head-to-head tested with compounds 83 and 129 respectively under the same conditions.

Going from “2-(6-(2-fluoropyridin-4-yl)-quinolin-4-ylthio)-2-ethylbutanoic acid [Compound 118]” to “2-(6-(3-fluoropyridin-4-yl)-quinolin-4-ylthio)-2-ethylbutanoic acid [Compound 123]”, the IC50 rises from 36 nM to 1400 nM (39-fold).

CC(C)(Sc1ccnc2ccc(C3CC3)cc12)C(=O)O [Compound 1, 2-(6-cyclopropylquinolin-4-ylthio)-2-methylpropanoic acid] and CC(C)(Sc1ccnc2ccc(-c3cccnc3)cc12)C(=O)O [Compound 3, 2-(6-(pyridin-3-yl)quinolin-4-ylthio)-2-methylpropanoic acid] are within 1.5-fold of each other in IC50: 486 nM for the first, 514 nM for the second.

First: CC(C)(Sc1ccnc2ccc(-c3ccncc3)cc12)C(=O)O [Compound 4, 2-(6-(pyridin-4-yl)quinolin-4-ylthio)-2-methylpropanoic acid]
Second: COc1ccccc1-c1ccc2nccc(SC(C)(C)C(=O)O)c2c1 [Compound 19, 2-(6-(2-methoxyphenyl)-quinolin-4-ylthio)-2-methylpropanoic acid]
The IC50 of the first is 3.7-fold lower: 127 nM for the first, 472 nM for the second.

First: COc1cccc(-c2ccc3nccc(SC(C)(C)C(=O)O)c3c2)c1 [Compound 20, 2-(6-(3-methoxyphenyl)-quinolin-4-ylthio)-2-methylpropanoic acid]
Second: COc1ccc(-c2ccc3nccc(SC(C)(C)C(=O)O)c3c2)cc1 [Compound 21, 2-(6-(4-methoxyphenyl)quinolin-4-ylthio)-2-methylpropanoic acid]
The IC50 of the first is 90-fold lower: 21 nM for the first, 1900 nM for the second. The first is the more potent here.

First: CC(C)(Sc1ccnc2ccc(Br)cc12)C(=O)O [Compound 22, 2-((6-bromoquinolin-4-yl)thio)-2-methylpropanoic Acid]
Second: CCC(Sc1ccnc2ccc(Br)cc12)C(=O)O (stereo not drawn) [Compound 24, 2-(6-bromoquinolin-4-ylthio)butanoic acid]
The IC50 of the first is 38-fold lower: 159 nM for the first, 6000 nM for the second. The first is the more potent here.

First: CC(C)(Sc1ccnc2ccc(-c3ccccc3F)cc12)C(=O)O [Compound 25, 2-(6-(2-fluorophenyl)-quinolin-4-ylthio)-2-methylpropanoic acid]
Second: CC(C)(Sc1ccnc2ccc(-c3cccc(F)c3)cc12)C(=O)O [Compound 28, 2-(6-(3-fluorophenyl)-quinolin-4-ylthio)-2-methylpropanoic acid]
The IC50 of the first is 2.3-fold higher: 812 nM for the first, 351 nM for the second.

Going from CC(C)(Sc1ccnc2ccc(-c3ccc(C(F)(F)F)cc3)cc12)C(=O)O [Compound 34, 2-(6-(4-(trifluoromethyl)phenyl)quinolin-4-ylthio)-2-methylpropanoic acid] to CC(C)(Sc1ccnc2ccc(-c3ccccc3C(F)(F)F)cc12)C(=O)O [Compound 37], the IC50 falls from 4600 nM to 325 nM (14-fold). The second is the more potent here.

First: CCC(CC)(Sc1ccnc2ccc(Br)cc12)C(=O)O [Compound 83, 2-(6-bromoquinolin-4-ylthio)-2-ethylbutanoic acid]
Second: CC(C)(Sc1ccnc2ccccc12)C(=O)O [Compound 93, 2-(quinolin-4-ylthio)-2-methylpropanoic acid]
The IC50 of the first is 34-fold lower: 70.6 nM for the first, 2400 nM for the second. The first is the more potent here.

Going from CC(C)C(Sc1ccnc2ccc(Br)cc12)C(=O)O (stereo not drawn) [Compound 94, 2-(6-bromoquinolin-4-ylthio)-3-methylbutanoic acid] to COc1cc2nccc(SC(C)(C)C(=O)O)c2cc1OC [Compound 95, 2-(6,7-dimethoxyquinolin-4-ylthio)-2-methylpropanoic acid], the IC50 rises from 4300 nM to greater than 30000 nM. The first is the more potent here.

Compared with CC(C)(Sc1ccnc2ccc(C(F)(F)F)cc12)C(=O)O [Compound 96, 2-(6-trifluoromethylquinolin-4-ylthio)-2-methylpropanoic acid], CC(C)(Sc1ccnc2ccc(-c3ccc(C#N)cc3)cc12)C(=O)O [Compound 100, 2-(6-(4-cyano-phenyl)-quinolin-4-ylthio)-2-methylpropanoic acid] is 11-fold higher in IC50: 772 nM for the first, 8140 nM for the second. The first is the more potent here.

Going from CC(C)(Sc1ccnc2ccc(-c3cccc(OC(F)(F)F)c3)cc12)C(=O)O [Compound 101, 2-(6-(3-trifluoromethoxy-phenyl)-quinolin-4-ylthio)-2-methylpropanoic acid] to CCOc1cccc(-c2ccc3nccc(SC(C)(C)C(=O)O)c3c2)c1 [Compound 102, 2-(6-(3-ethoxy-phenyl)-quinolin-4-ylthio)-2-methylpropanoic acid], the IC50 falls from 710 nM to 32 nM (22-fold). The second is the more potent here.

Compared with CC(C)Oc1cccc(-c2ccc3nccc(SC(C)(C)C(=O)O)c3c2)c1 [Compound 103, 2-(6-(3-isopropoxy-phenyl)-quinolin-4-ylthio)-2-methylpropanoic acid], CC(C)(Sc1ccnc2ccc(-c3cccc(OC(F)F)c3)cc12)C(=O)O [Compound 104] is 6.4-fold higher in IC50: 37 nM for the first, 238 nM for the second. The first is the more potent here.

Compared with CS(=O)(=O)NC(=O)C1(Sc2ccnc3ccc(Br)cc23)CCC1 [Compound 107, 1-(6-bromoquinolin-4-ylthio)-N-(methylsulfonyl)cyclobutyl-1-formamide], CCCC(CCC)(Sc1ccnc2ccc(-c3cccc(OCC)c3)cc12)C(=O)O [Compound 108, 2-(6-(3-ethoxy-phenyl)-quinolin-4-ylthio)-2-propylpentanoic acid] is 1.6-fold higher in IC50: 336 nM for the first, 523 nM for the second. The first is the more potent here.

Going from CCCC(CCC)(Sc1ccnc2ccc(-c3cccc(OC4CC4)c3)cc12)C(=O)O [Compound 109, 2-(6-(3-cyclopropyloxy-phenyl)-quinolin-4-ylthio)-2-propylpentanoic acid] to CCCC(CCC)(Sc1ccnc2ccc(-c3cccc(OC4CCC4)c3)cc12)C(=O)O [Compound 110, 2-(6-(3-cyclobutyloxy-phenyl)-quinolin-4-ylthio)-2-propylpentanoic acid], the IC50 rises from 722 nM to 2860 nM (4-fold).

First: CCC(CC)(Sc1ccnc2ccc(-c3cccc(OC4CCC4)c3)cc12)C(=O)O [Compound 111, 2-(6-(3-cyclobutyloxy-phenyl)-quinolin-4-ylthio)-2-ethylbutanoic acid]
Second: CCC(CC)(Sc1ccnc2ccc(-c3cccc(OC4CC4)c3)cc12)C(=O)O [Compound 112, 2-(6-(3-cyclopropyloxy-phenyl)-quinolin-4-ylthio)-2-ethylbutanoic acid]
The IC50 of the first is 1.8-fold higher: 267 nM for the first, 147 nM for the second. The second is the more potent here.

same assay, conditions: average of the multiple head-to-head comparison tests, Table 2; read-out: Average (IC50 of multiple determinations)

For CCC(CC)(Sc1ccnc2ccc(Br)cc12)C(=O)O [Compound 83, 2-(6-bromoquinolin-4-ylthio)-2-ethylbutanoic acid], the IC50 was 70.6 nM.

same assay, conditions: single determinations of multiple head-to-head tests, Ref cpd 2 vs Cpd 83; read-out: Multiple determination data (IC50)

CCC(CC)(Sc1ccnc2ccc(Br)cc12)C(=O)O [Compound 83, 2-(6-bromoquinolin-4-ylthio)-2-ethylbutanoic acid] was tested, and the IC50 was 42.5 nM and 117 nM and 89 nM and 93 nM and 56 nM and 58 nM and 38.9 nM.

same assay, conditions: statement in the text on Table 1

With CCC(CC)(Sc1ccnc2ccc(Br)cc12)C(=O)O [Compound 83, 2-(6-bromoquinolin-4-ylthio)-2-ethylbutanoic acid] the “inhibitory effect on uric acid transporter URAT1 (in words)” value was “better inhibitory activity against the uric acid transporter than compound 1”.

— patent publication US10450274B2, “Quinoline compounds, preparation methods thereof, and uses thereof as urate transporter inhibitor drug” (HINOVA PHARMACEUTICALS INC., priority 2015, dated 2019)
